We go through 31 compounds from US7250441B2, “Carbazole and cyclopentaindole derivatives to treat infection with Hepatitis C virus” (priority 2004, dated 2007).

SMILES strings stand for the structures.

In the experiment the target is T1, HCV RdRp NS5B d21BK (NS5B from the BK strain, genotype 1b) (Hepatitis C virus genotype 1b, UniProt P26663).
T1 construct: NS5B from the BK strain (genotype 1b) is expressed in E coli as a protein in which the 21 C-terminal amino acids are replaced; made in house; host or cells: E. coli
T1 sequence (P26663 2420-2989): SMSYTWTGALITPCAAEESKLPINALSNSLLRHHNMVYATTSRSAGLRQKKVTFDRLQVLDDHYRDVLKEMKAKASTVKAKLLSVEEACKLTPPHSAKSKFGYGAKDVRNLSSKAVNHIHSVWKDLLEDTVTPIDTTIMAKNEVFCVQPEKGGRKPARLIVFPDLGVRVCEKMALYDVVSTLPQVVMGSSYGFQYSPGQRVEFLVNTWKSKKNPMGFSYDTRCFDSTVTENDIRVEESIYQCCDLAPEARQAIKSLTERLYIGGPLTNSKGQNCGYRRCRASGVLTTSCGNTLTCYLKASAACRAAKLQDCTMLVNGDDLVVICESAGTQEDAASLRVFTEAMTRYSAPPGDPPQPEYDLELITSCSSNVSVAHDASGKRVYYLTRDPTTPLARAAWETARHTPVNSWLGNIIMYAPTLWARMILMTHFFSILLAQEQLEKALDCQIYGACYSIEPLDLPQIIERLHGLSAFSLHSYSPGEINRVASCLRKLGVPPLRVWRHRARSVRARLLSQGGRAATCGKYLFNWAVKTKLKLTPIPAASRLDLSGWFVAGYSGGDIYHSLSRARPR
Briefly: Hepatitis C polymerase inhibition assay, radioactive nucleotide incorporation with filter capture. It counts as biochemical. The text has this: The ability of the compounds of formula (I) to inhibit Hepatitis C Polymerase was established by the following experimental procedure.
NS5B from the BK strain (genotype 1b) is expressed in E coli as a protein in which the 21 C-terminal amino acids are replaced with a short linker and a hexahistidine tag ([…]). The purified protein is mixed with radioactive nucleotides and allowed to replicate a heteropolymeric RNA substrate, primed by an endogenous short hairpin, resulting in an approximately 760 nt product. The radioactive product is captured on a filter and quantitated after removal of the unincorporated nucleotides.
(1) Compounds 10 μl at 10 μg/ml in 15% dimethylsulfoxide (DMSO)
When starting from 100 μg/ml compound stock in 1% DMSO, 5 μl 30% DMSO is dispensed per well. Next, 5 μl compound (100 μg/ml) is dispensed per well.
When starting from 50 μg/ml compound stock in 15% DMSO, 10 μl compound is added per well.
20 μl enzyme mix is added into each well of the assay plate. The compound and enzyme are incubated at room temperature for 15 minutes.
(3) Template mix (prepared in advance)
A tube of RNA (5 μg/tube stored in 75% ethanol and 0.3 M sodium acetate) is microcentrifuged for 20 minutes at 4° C. (one tube supplies 1-1.5 plates). Ethanol is removed from the tube by gently inverting the tube. The RNA is vacuum dried and re-suspended in 1 ml of DEPC water in a tightly capped tube. To dissolve RNA, the RNA solution is incubated on ice for ˜60 minutes and gently vortexed. It is spun briefly to ensure all RNA solution at the bottom of the tube before opening cap. The RNA solution is then gently transferred into a 5 ml or larger tube. Another 3 ml of DEPC water is added to obtain a total of 4 ml of volume.
The following volumes of reagents are added:
20 μl template mix per reaction is added (i.e. 20 ng of pOF per reaction or ˜3 nM)
(4) The reaction is incubated at room temperature (22-25° C.) for 2 hours.
(5) The reaction is quenched by adding 50 μl of 170 mM EDTA.
Final concentration of EDTA is 85 mM.
(6) The filters of Millipore multiscreen assay plate is pre-wet by adding 200 μl of 0.5 M sodium phosphate buffer, pH 7.0 into each well. This stands at room temperature for 2-3 minutes.
(7) The multiscreen filter plate is placed onto a Millipore Manifold under vacuum to allow buffer to flow through. After the vacuum is turned off, 80 μl of the reaction product is transferred into each well of the filter plate. This stands for 2-3 minutes prior to turning on the vacuum again to filter the reaction product.
(8) The vacuum is then removed. 200 μl of 0.5 M sodium phosphate buffer is added, pH 7.0, into each well. The vacuum is then turned on.
Step (8) is repeated three more times.
(9) Next the polypropylene bottom is removed, and the filter is spot dried with a paper towel. The filter plate is air-dried on a bench for 1 hour before adding 40 μl Super Mix scintillant. The top of the plate is sealed with a tape and the plate is placed into a Packard carrier or micro-beta carrier.
(10) The plate is counted using a Packard Topcount or micro-beta counter. Count (for example using Program 10) for ^33P in Top count or ^33P program in micro-beta.
The percent inhibition is calculated after background subtraction as a percent reduction of activity relative to the positive control (average value of the plate excluding the negative controls). For the primary screen hits were chosen as showing >75% inhibition.
See, Ferrari et al. 1999. J. Virology 73:1649-1654: “Characterization of soluble Hepatitis C virus RNA-dependent RNA polymerase expressed in E. coli and Takamizawa et al 1991” and J. Virology 65:1105-1113: “Structure and characterization of Hepatitis C virus genome isolated from human carriers,” both reference are hereby incorporated by reference.
On to `C=CCC1(C(=O)O)CCc2c1[nH]c1c(Cl)ccc(Cl)c21` (stereo not shown) [Example 1, 3-Allyl-5,8-dichloro-1,2,3,4-tetrahydro-cyclopenta[b]indole-3-carboxylic acid], for which the IC50 worked out at 1.2 µM.

Regarding `CCCCC1(C(=O)O)CCc2c1[nH]c1c(Cl)ccc(Cl)c21` (stereo not shown) [Example 2, 3-Butyl-5,8-dichloro-1,2,3,4-tetrahydro-cyclopenta[b]indole-3-carboxylic acid], the concentration for half-maximal inhibition (IC50) was 1.9 µM.

As to `CCCC1(C(=O)O)CCc2c1[nH]c1c(Cl)ccc(Cl)c21` (stereo not shown) [Example 3, 5,8-Dichloro-3-propyl-1,2,3,4-tetrahydro-cyclopenta[b]indole-3-carboxylic acid], the IC50 was found to be 0.55 µM.

In the case of `CCCCC1(C(=O)O)CCc2c1[nH]c1c(C)ccc(Br)c21` (stereo not shown) [Example 4, 8-Bromo-3-butyl-5-methyl-1,2,3,4-tetrahydro-cyclopenta[b]indole-3-carboxylic acid], the half-inhibitory concentration (IC50) was 6.7 µM.

In the case of `CCCCC1(C(=O)O)CCc2c1[nH]c1c(F)ccc(Br)c21` (stereo not shown) [Example 5, 8-Bromo-3-butyl-5-fluoro-1,2,3,4-tetrahydro-cyclopenta[b]indole-3-carboxylic acid], the IC50 was 5.8 µM.

Turning to `CCCCC1(C(=O)O)CCc2c1[nH]c1c(C)cc(F)c(Br)c21` (stereo not shown) [Example 6, 8-Bromo-3-butyl-7-fluoro-5-methyl-1,2,3,4-tetrahydro-cyclopenta[b]indole-3-carboxylic acid], the IC50 came out at 2.1 µM.

In the case of `CCCCC1(C(=O)O)CCc2c1[nH]c1c(C)cc(F)cc21` (stereo not shown) [Example 7, 3-Butyl-7-fluoro-5-methyl-1,2,3,4-tetrahydro-cyclopenta[b]indole-3-carboxylic acid], the IC50 stood at 9.1 µM.

For `C=CCC1(C(=O)O)CCc2c1[nH]c1c(C)ccc(Br)c21` (stereo not shown) [Example 8, 3-Allyl-8-bromo-5-methyl-1,2,3,4-tetrahydro-cyclopenta[b]indole-3-carboxylic acid], the IC50 worked out at 5.7 µM.

`C=CCC1(C(=O)O)CCc2c1[nH]c1c(F)ccc(Br)c21` (stereo not shown) [Example 9, 3-Allyl-8-bromo-5-fluoro-1,2,3,4-tetrahydro-cyclopenta[b]indole-3-carboxylic acid]: the IC50 was determined as 6.4 µM.

Turning to `C=CCC1(C(=O)O)CCc2c1[nH]c1c(C)cc(F)c(Br)c21` (stereo not shown) [Example 10, 3-Allyl-8-bromo-7-fluoro-5-methyl-1,2,3,4-tetrahydro-cyclopenta[b]indole-3-carboxylic acid], the 50% inhibitory concentration (IC50) came out at 3.2 µM.

As to `CCCC1(C(=O)O)CCc2c1[nH]c1c(C)ccc(Br)c21` (stereo not shown) [Example 11, 8-Bromo-5-methyl-3-propyl-1,2,3,4-tetrahydro-cyclopenta[b]indole-3-carboxylic acid], the IC50 amounted to 1.9 µM.

As to `CCCC1(C(=O)O)CCc2c1[nH]c1c(F)ccc(Br)c21` (stereo not shown) [Example 12, 8-Bromo-5-fluoro-3-propyl-1,2,3,4-tetrahydro-cyclopenta[b]indole-3-carboxylic acid], the half-inhibitory concentration (IC50) came to 2.9 µM.

Turning to `CCCC1(C(=O)O)CCc2c1[nH]c1c(C)cc(F)c(Br)c21` (stereo not shown) [Example 13, 8-Bromo-7-fluoro-5-methyl-3-propyl-1,2,3,4-tetrahydro-cyclopenta[b]indole-3-carboxylic acid], the IC50 was 2 µM.

For the compound `C=CCC1(C(=O)O)CCc2c1[nH]c1c(F)ccc(C#N)c21` (stereo not shown) [Example 14, 3-Allyl-8-cyano-5-fluoro-1,2,3,4-tetrahydro-cyclopenta[b]indole-3-carboxylic acid], the IC50 amounted to 14.5 µM.

For `CCCCC1(C(=O)O)CCc2c1[nH]c1c(C)ccc(C#N)c21` (stereo not shown) [Example 15, 3-Butyl-8-cyano-5-methyl-1,2,3,4-tetrahydro-cyclopenta[b]indole-3-carboxylic acid], the IC50 was found to be 4.6 µM.

Consider `CCCCC1(C(=O)O)CCc2c1[nH]c1c(F)ccc(C#N)c21` (stereo not shown) [Example 16, 3-Butyl-8-cyano-5-fluoro-1,2,3,4-tetrahydro-cyclopenta[b]indole-3-carboxylic acid], for which the IC50 came out at 5.4 µM.

Take `CCCCC1(C(=O)O)CCc2c1[nH]c1c(C)cc(F)c(C#N)c21` (stereo not shown) [Example 17, 3-Butyl-8-cyano-7-fluoro-5-methyl-1,2,3,4-tetrahydro-cyclopenta[b]indole-3-carboxylic acid]: the IC50 was 1.5 µM.

For the compound `C=CCC1(C(=O)O)CCc2c1[nH]c1c(C)ccc(C#N)c21` (stereo not shown) [Example 18, 3-Allyl-8-cyano-5-methyl-1,2,3,4-tetrahydro-cyclopenta[b]indole-3-carboxylic acid], the IC50 worked out at 11 µM.

With `C=CCC1(C(=O)O)CCc2c1[nH]c1c(C)cc(F)c(C#N)c21` (stereo not shown) [Example 19, 3-Allyl-8-cyano-7-fluoro-5-methyl-1,2,3,4-tetrahydro-cyclopenta[b]indole-3-carboxylic acid], the IC50 was 6.3 µM.

Regarding `CCCC1(C(=O)O)CCc2c1[nH]c1c(C)ccc(C#N)c21` (stereo not shown) [Example 20, 8-Cyano-5-methyl-3-propyl-1,2,3,4-tetrahydro-cyclopenta[b]indole-3-carboxylic acid], the IC50 was 4.7 µM.

Regarding `CCCC1(C(=O)O)CCc2c1[nH]c1c(F)ccc(C#N)c21` (stereo not shown) [Example 21, 8-Cyano-5-fluoro-3-propyl-1,2,3,4-tetrahydro-cyclopenta[b]indole-3-carboxylic acid], the IC50 amounted to 8.1 µM.

As for `CCCC1(C(=O)O)CCc2c1[nH]c1c(C)cc(F)c(C#N)c21` (stereo not shown) [Example 22, 8-Cyano-7-fluoro-5-methyl-3-propyl-1,2,3,4-tetrahydro-cyclopenta[b]indole-3-carboxylic acid], the 50% inhibitory concentration (IC50) was found to be 1.8 µM.

`CCC1(C(=O)O)CCCc2c1[nH]c1c(Cl)ccc(Cl)c21` (stereo not shown) [Example 23, 5,8-Dichloro-1-ethyl-2,3,4,9-tetrahydro-1H-carbazole-1-carboxylic acid]: the concentration for half-maximal inhibition (IC50) was found to be 9.7 µM.

For `CCCC1(C(=O)O)CCCc2c1[nH]c1c(Cl)ccc(Cl)c21` (stereo not shown) [Example 24, 5,8-Dichloro-1-propyl-2,3,4,9-tetrahydro-1H-carbazole-1-carboxylic acid], the IC50 came to 3.2 µM.

As for `CCCC1(C(=O)O)CCCc2c1[nH]c1c(F)ccc(C#N)c21` (stereo not shown) [Example 25, 5-Cyano-8-fluoro-1-propyl-2,3,4,9-tetrahydro-1H-carbazole-1-carboxylic acid], the IC50 came out at 10 µM.

As to `N#Cc1ccc(F)c2[nH]c3c(c12)CCCC3(CC1CCC1)C(=O)O` (stereo not shown) [Example 26, 5-Cyano-1-cyclobutylmethyl-8-fluoro-2,3,4,9-tetrahydro-1H-carbazole-1-carboxylic acid], the IC50 amounted to 16 µM.

As to `CCCC1(C(=O)O)CCCc2c1[nH]c1c(Cl)ccc(C(F)(F)F)c21` (stereo not shown) [Example 27, 8-Chloro-1-propyl-5-trifluoromethyl-2,3,4,9-tetrahydro-1H-carbazole-1-carboxylic acid], the IC50 was 5.8 µM.

Regarding `CCCC1(C(=O)O)CCCc2c1[nH]c1c(C)ccc(C#N)c21` (stereo not shown) [Example 28, 5-Cyano-8-methyl-1-propyl-2,3,4,9-tetrahydro-1H-carbazole-1-carboxylic acid], the IC50 was 15 µM.

Turning to `C=CCC1(CC(=O)O)CCCc2c1[nH]c1c(F)ccc(F)c21` (stereo not shown) [Example 29, (1-Allyl-5,8-difluoro-2,3,4,9-tetrahydro-1H-carbazol-1-yl)-acetic acid], the half-maximal inhibitory concentration (IC50) is 32 µM.

With `CCCC1(CC(=O)O)CCCc2c1[nH]c1cc(F)cc(F)c21` (stereo not shown) [Example 30, (5,7-Difluoro-1-propyl-2,3,4,9-tetrahydro-1H-carbazol-1-yl)-acetic acid], the half-maximal inhibitory concentration (IC50) stood at 30.7 µM.

In the case of `C=CCC1(CC(=O)O)CCCc2c1[nH]c1c(F)ccc(C#N)c21` (stereo not shown) [Example 31, (1-Allyl-5-cyano-8-fluoro-2,3,4,9-tetrahydro-1H-carbazol-1-yl)-acetic acid], the IC50 was 0.37 µM.
